Measurements taken from patent publication US20200216416A1, “QUINOLINE COMPOUNDS AS INHIBITORS OF TAM AND MET KINASES” (Array BioPharma Inc., priority 2019, published 2020).

What was measured:
[1] = molecular target: T1, human MET kinase Y1230C (Homo sapiens, UniProt P08581, Y1230C); assay: c-Met Enzyme Assay, Y1230C mutant; type: binding; details: averaged IC50; Y1230C 2 nM; 60-minute incubation at 22° C.; read-out: Y1230 C IC50
T1 construct: GST-tagged recombinant human MET kinase domain; purchased Signal Chem
Protocol: (§1) The affinity of compound binding to wild type and mutant human MET kinases was measured using Invitrogen's LanthaScreen™ Eu Kinase Binding technology. Briefly, GST-tagged recombinant human MET kinase domain from Signal Chem (see Table 8 below for concentration in assay) was incubated with 50 nM Alexa-Fluor® Tracer 236 (Invitrogen Cat No. PR9078A) and 2 nM Europium-anti-GST (Invitrogen Cat. No. A15116) along with test compound in a buffer consisting of 25 mM HEPES, pH 7.4, 10 mM MgCl2, 0.01% Triton X-100, 1mM DTT, and 2% DMSO. Compounds were typically prepared in a three-fold serial dilution in DMSO and added to the assay to give the appropriate final concentration. After a 60-minute incubation at 22° C., the reaction was measured using a PerkinElmer EnVision multimode plate reader via TR-FRET dual wavelength detection, and the percent of control (POC) calculated using a ratiometric emission factor. […] The POC values were fit to a 4 parameter logistic curve and the IC50 value is point where the curve crosses 50 POC.

[2] = molecular target: T2, human MET kinase Y1230S (Homo sapiens, UniProt P08581, Y1230S); assay: c-Met Enzyme Assay, Y1230S mutant; type: binding; details: averaged IC50; Y1230S 8 nM; 60-minute incubation at 22° C.; read-out: Y1230 S IC50
T2 construct: GST-tagged recombinant human MET kinase domain; purchased Signal Chem
Protocol: as §1

[3] = molecular target: T3, His-tagged recombinant human AXL cytoplasmic domain (Homo sapiens, UniProt P30530); assay: AXL Enzyme Assay (LanthaScreen Eu Kinase Binding); details: averaged IC50; 60-minute incubation at 22° C.; TR-FRET
T3 construct: His-tagged recombinant human AXL cytoplasmic domain
T3 sequence (P30530 473-894 limits assumed): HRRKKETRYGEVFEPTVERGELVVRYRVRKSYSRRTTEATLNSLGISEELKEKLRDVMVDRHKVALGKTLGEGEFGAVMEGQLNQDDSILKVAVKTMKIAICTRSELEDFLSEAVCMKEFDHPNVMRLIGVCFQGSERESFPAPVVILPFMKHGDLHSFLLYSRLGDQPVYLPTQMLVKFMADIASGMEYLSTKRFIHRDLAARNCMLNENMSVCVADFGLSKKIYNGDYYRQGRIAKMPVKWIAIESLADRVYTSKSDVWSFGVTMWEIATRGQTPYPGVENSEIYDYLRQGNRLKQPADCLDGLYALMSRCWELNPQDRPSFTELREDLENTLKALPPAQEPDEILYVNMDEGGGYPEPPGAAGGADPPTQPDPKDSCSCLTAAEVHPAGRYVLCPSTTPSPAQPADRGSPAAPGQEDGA
Protocol: (§2) Compounds disclosed herein were screened for their ability to inhibit AXL kinase using Invitrogen's LanthaScreen™Eu Kinase Binding technology. His-tagged recombinant human AXL cytoplasmic domain was incubated with 20 nM Alexa-Fluor® Tracer 236 (PR9078A), 2 nM biotinylated anti-His (Cat. No. M4408), and 2 nM europium-labeled Streptavidin (Cat. No. PV5899) along with test compound in a buffer consisting of 25 mM HEPES, pH 7.4, 10 mM MgCl2, 0.01% Triton X-100, and 2% DMSO. Compounds were typically prepared in a threefold serial dilution in DMSO and added to the assay to give the appropriate final concentration. After a 60-minute incubation at 22° C., the reaction was measured using a PerkinElmer EnVision multimode plate reader via TR-FRET dual wavelength detection, and the percent of control (POC) was calculated using a ratiometric emission factor. […] The POC values are fit to a 4 parameter logistic curve and the IC50 value is point where the curve crosses 50 POC.

[4] = molecular target: T4, human MET kinase Y1230H (Homo sapiens, UniProt P08581, Y1230H); assay: c-Met Enzyme Assay, Y1230H mutant; type: binding; details: averaged IC50; Y1230H 5 nM; 60-minute incubation at 22° C.; read-out: Y1230 H IC50
T4 construct: GST-tagged recombinant human MET kinase domain; purchased Signal Chem
Protocol: as §1

[5] = molecular target: T5, human MET kinase D1228H (Homo sapiens, UniProt P08581, D1228H); assay: c-Met Enzyme Assay, D1228H mutant; type: binding; details: averaged IC50; D1228H 2 nM; 60-minute incubation at 22° C.; read-out: D1228 H IC50
T5 construct: GST-tagged recombinant human MET kinase domain; purchased Signal Chem
Protocol: as §1

[6] = molecular target: T6, His-tagged recombinant human MER cytoplasmic domain (Homo sapiens, UniProt Q12866); assay: MER Enzyme Assay (LanthaScreen Eu Kinase Binding); details: averaged IC50; MER 5 nM; 60-minute incubation at 22° C.; TR-FRET
T6 construct: His-tagged recombinant human MER cytoplasmic domain
T6 sequence (Q12866 527-999 limits assumed): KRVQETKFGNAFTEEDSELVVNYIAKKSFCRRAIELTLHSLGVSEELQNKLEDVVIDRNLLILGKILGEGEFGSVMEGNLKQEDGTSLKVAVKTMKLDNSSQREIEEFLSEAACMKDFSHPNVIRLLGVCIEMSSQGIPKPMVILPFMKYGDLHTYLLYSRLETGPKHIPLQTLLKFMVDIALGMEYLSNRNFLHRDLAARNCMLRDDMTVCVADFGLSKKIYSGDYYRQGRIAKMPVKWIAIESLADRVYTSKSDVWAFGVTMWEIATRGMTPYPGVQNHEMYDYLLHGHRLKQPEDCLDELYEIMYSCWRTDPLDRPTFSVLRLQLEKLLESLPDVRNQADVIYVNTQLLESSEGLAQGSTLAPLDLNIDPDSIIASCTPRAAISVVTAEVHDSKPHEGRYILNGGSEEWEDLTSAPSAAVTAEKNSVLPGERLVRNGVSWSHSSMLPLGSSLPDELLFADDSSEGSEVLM
Protocol: as §2, with “human MER” for “human AXL”, “domain (5 nM)” for “domain”, “mM MgCl 2,” for “mM MgCl2,”

[7] = molecular target: T7, human MET kinase D1228N (Homo sapiens, UniProt P08581, D1228N); assay: c-Met Enzyme Assay, D1228N mutant; type: binding; details: averaged IC50; D1228N 2 nM; 60-minute incubation at 22° C.; read-out: D1228 N IC50
T7 construct: GST-tagged recombinant human MET kinase domain; purchased Signal Chem
Protocol: as §1

T2 sequence (P08581 1078-1345 Y1230S): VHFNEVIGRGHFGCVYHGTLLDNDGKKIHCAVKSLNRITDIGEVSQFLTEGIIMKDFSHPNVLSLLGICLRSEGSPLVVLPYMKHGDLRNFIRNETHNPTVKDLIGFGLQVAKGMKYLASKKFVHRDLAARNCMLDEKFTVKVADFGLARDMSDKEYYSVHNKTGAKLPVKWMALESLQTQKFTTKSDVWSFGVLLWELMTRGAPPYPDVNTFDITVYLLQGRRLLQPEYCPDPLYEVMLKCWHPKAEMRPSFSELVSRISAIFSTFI
T1 sequence (P08581 1078-1345 Y1230C): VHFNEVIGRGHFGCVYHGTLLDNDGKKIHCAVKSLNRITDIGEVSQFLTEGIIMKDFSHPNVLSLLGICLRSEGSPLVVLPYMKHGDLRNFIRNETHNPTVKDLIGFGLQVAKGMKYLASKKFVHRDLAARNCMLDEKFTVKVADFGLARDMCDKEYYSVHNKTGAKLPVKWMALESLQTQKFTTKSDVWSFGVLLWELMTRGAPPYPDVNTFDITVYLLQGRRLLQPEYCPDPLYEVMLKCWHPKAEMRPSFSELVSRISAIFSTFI
T5 sequence (P08581 1078-1345 D1228H): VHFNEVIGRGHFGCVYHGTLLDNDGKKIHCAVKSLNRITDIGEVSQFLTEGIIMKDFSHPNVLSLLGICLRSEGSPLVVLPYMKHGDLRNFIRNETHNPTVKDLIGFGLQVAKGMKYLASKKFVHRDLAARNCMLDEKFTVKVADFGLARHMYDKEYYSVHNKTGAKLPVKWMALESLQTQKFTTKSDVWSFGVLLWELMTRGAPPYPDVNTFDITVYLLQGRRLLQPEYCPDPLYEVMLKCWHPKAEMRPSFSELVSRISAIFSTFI
T4 sequence (P08581 1078-1345 Y1230H): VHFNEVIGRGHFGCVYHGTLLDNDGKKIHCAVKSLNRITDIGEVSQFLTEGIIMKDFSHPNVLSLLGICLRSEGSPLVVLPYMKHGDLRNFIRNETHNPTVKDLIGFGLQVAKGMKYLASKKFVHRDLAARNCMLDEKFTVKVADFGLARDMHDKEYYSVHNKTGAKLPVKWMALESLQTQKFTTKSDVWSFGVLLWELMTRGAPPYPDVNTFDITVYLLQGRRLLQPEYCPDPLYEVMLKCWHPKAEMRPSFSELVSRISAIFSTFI
T7 sequence (P08581 1078-1345 D1228N): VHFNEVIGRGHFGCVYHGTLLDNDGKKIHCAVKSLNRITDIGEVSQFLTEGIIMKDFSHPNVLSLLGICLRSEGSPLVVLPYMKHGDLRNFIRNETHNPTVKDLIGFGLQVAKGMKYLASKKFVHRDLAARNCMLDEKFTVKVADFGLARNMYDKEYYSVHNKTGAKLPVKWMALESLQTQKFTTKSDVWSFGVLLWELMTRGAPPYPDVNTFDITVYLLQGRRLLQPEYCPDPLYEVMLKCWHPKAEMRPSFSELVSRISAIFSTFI

Row | SMILES | IC50 [1] [nM] | IC50 [2] [nM] | IC50 [3] [nM] | IC50 [4] [nM] | IC50 [5] [nM] | IC50 [6] [nM] | IC50 [7] [nM]
1 | COc1cc2nc(C)cc(Oc3ccc(NC(=O)c4cn(C(C)C)cc(-c5ccc(F)cc5)c4=O)nc3)c2cc1OC [Example 53, N-(5-((6,7-dimethoxy-2-methylquinolin-4-yl)oxy)pyridin-2-yl)-5-(4-fluorophenyl)-1-isopropyl-4-oxo-1,4-dihydropyridine-3-carboxamide] | 3310 | 3710 | 448 | 1670 | 4220 | 950 | 
2 | COc1cc2nccc(Oc3ccc(NC(=O)c4cn(C(C)C)cc(-c5ccc(F)cc5Cl)c4=O)nc3)c2cc1OC [Example 18, 5-(2-chloro-4-fluorophenyl)-N-(5-((6,7-dimethoxyquinolin-4-yl)oxy)pyridin-2-yl)-1-isopropyl-4-oxo-1,4-dihydropyridine-3-carboxamide] | 2.4 | 2.7 | 2 | 4.6 | 2.4 | 2 | 4.7
3 | COc1cc2nccc(Oc3ccc(NC(=O)c4cn(CCC(C)C)cc(-c5ccc(F)c(F)c5)c4=O)nc3)c2cc1OC [Example 35, 5-(3,4-difluorophenyl)-N-(5-((6,7-dimethoxyquinolin-4yl)oxy)pyridin-2-yl)-1-isopentyl-4-oxo-1,4-dihydropyridine-3-carboxamide] | 10.5 | 8.5 | 6 | 18.3 | 8.3 | 15 | 16.2
4 | CCOc1ccc2nccc(Oc3ccc(NC(=O)c4cn(C(C)C)cc(-c5ccc(F)cc5)c4=O)nc3)c2c1 [Example 51, N-(5-((6-ethoxyquinolin-4-yl)oxy)pyridin-2-yl)-5-(4-fluorophenyl)-1-isopropyl-4-oxo-1,4-dihydropyridine-3-carboxamide] | 61.8 | 44 | 5 | 200 | 59.5 | 14 | 178
5 | COc1ccc(-c2cn(C(C)C)cc(C(=O)Nc3ccc(Oc4ccnc5cc(OC)c(OC)cc45)cn3)c2=O)c(F)c1 [Example 31, N-(5-((6,7-dimethoxyquinolin-4yl)oxy)pyridin-2-yl)-5-(2-fluoro-4-methoxyphenyl)-1-isopropyl-4-oxo-1,4-dihydropyridine-3-carboxamide] | 69.3 | 72.1 | 1 | 98.2 | 55.7 | 5 | 62.7
6 | COc1cc(-c2cn(C(C)C)cc(C(=O)Nc3ccc(Oc4ccnc5cc(OC)c(OC)cc45)cn3)c2=O)ccc1F [Example 20, N-(5-((6,7-dimethoxyquinolin-4yl)oxy)pyridin-2-yl)-5-(4-fluoro-3-methoxyphenyl)-1-isopropyl-4-oxo-1,4-dihydropyridine-3-carboxamide] | 7.7 | 6.2 | 3 | 9.9 | 9.9 | 3 | 10.4
7 | COc1cc2nccc(Oc3ccc(NC(=O)c4cn(C(C)C)c(C(C)C)c(-c5ccc(F)cc5)c4=O)nc3)c2cc1OC [Example 38, N-(5-((6,7-dimethoxyquinolin-4yl)oxy)pyridin-2-yl)-5-(4-fluorophenyl)-1,6-diisopropyl-4-oxo-1,4-dihydropyridine-3-carboxamide] |  |  | 3 |  |  | 6 | 

Next, values leading:

Row | IC50 [1] [nM] | IC50 [2] [nM] | IC50 [3] [nM] | IC50 [4] [nM] | IC50 [5] [nM] | IC50 [6] [nM] | IC50 [7] [nM] | SMILES
8 | 2.6 | 1.5 | 1 | 4.2 | 2.4 | 3 | 3.1 | CCc1c(-c2ccc(F)cc2)c(=O)c(C(=O)Nc2ccc(Oc3ccnc4cc(OC)c(OC)cc34)cn2)cn1C(C)C [Example 29, N-(5-((6,7-dimethoxyquinolin-4yl)oxy)pyridin-2-yl)-6-ethyl-5-(4-fluorophenyl)-1-isopropyl-4-oxo-1,4-dihydropyridine-3-carboxamide]
9 | 39 | 67.1 | 1 | 112 | 64.3 | 5 | 130 | COc1cc2c(Oc3ccc(NC(=O)c4cn(C(C)C)cc(-c5ccc(F)cc5)c4=O)nc3)ccnc2cc1F [Example 49, N-(5-((7-fluoro-6-methoxyquinolin-4yl)oxy)pyridin-2-yl)-5-(4-fluorophenyl)-1-isopropyl-4-oxo-1,4-dihydropyridine-3-carboxamide]
10 | 1.5 | 1.1 | 1 | 2.3 | 1.1 | 2 | 2 | COc1cc2nccc(Oc3ccc(NC(=O)c4cn(C(C)C)c(C)c(-c5ccc(F)cc5)c4=O)nc3)c2cc1OC [Example 27, N-(5-((6,7-dimethoxyquinolin-4yl)oxy)pyridin-2-yl)-5-(4-fluorophenyl)-1-isopropyl-6-methyl-4-oxo-1,4-dihydropyridine-3-carboxamide]
11 | 8.8 | 18.9 | 1 | 29.4 | 31.1 | 7 | 29.7 | COc1ccc2nccc(Oc3ccc(NC(=O)c4cn(CCN(C)C)cc(-c5ccc(F)cc5)c4=O)nc3)c2c1 [Example 47]
